In ChEMBL document CHEMBL3991947, “D-serine transporter inhibitors as pharmaceutical compositions for the treatment of central nervous system disorders” (2014):

Target: T1, Amino acid transporter (Rattus norvegicus) (UniProt Q9Z1J7)
T1 sequence (whole entry): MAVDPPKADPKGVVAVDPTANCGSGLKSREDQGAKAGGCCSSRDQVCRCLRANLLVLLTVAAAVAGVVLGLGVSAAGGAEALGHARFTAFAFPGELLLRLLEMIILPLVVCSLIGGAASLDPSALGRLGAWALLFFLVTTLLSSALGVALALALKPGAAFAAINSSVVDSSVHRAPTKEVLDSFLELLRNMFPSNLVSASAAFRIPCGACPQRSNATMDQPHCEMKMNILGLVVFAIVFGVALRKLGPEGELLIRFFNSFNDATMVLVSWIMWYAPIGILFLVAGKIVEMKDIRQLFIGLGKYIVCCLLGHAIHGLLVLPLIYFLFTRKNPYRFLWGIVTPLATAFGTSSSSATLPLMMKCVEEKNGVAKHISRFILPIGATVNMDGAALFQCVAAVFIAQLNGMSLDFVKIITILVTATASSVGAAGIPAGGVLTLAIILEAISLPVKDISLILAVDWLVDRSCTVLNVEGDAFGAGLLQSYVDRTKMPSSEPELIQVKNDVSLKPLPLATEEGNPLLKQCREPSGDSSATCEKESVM
Test: Inhibition of ASCT2 mediated [3H]-D-serine uptake in rat hippocampal astrocytes at 1 mM after 5 mins by beta counting analysis
Assay type: cell-based

Q: With `O=C(O)[C@@H]1C[C@@H](C2CCCCC2)CN1` as the compound, how does the inhibition read?
A: Its inhibition is > 25%.

Q: For `N#Cc1ccccc1C[C@H]1CNC(C(=O)O)C1` (single isomer, unassigned), which inhibition is on record?
A: The inhibition was > 25%.

Q: With `O=C(O)[C@@H]1CCN1` as the compound, how does the inhibition read?
A: The inhibition was > 25%.

Q: Which inhibition does the source give for `NCC(=O)O` here?
A: Its inhibition is > 25%.

Q: For `C[C@H](N)C(=O)O`, which inhibition is on record?
A: The inhibition was > 25%.

Q: How did the inhibition turn out when `NC(C(=O)O)C(O)c1cccs1` (racemic) was run?
A: The inhibition was > 25%.

Q: Which inhibition does the source give for `O=C(O)C1C[C@@H](Cc2ccc(Cl)c(Cl)c2)CN1` (single isomer, unassigned) here?
A: Its inhibition is > 25%.

Q: `O=C(O)[C@@H]1C[C@@H](Cc2ccccn2)CN1` was tested. Which inhibition did it give?
A: Its inhibition is > 25%.

Q: `N[C@@H](CCC(=O)Nc1ccc2ccccc2c1)C(=O)O` was tested. Which inhibition did it give?
A: The inhibition was > 25%.

Q: Which inhibition does the source give for `O=C(O)C(c1ccc(F)cc1)N1CCOCC1` (stereo not drawn) here?
A: Its inhibition is > 25%.

Q: How did the inhibition turn out when `N[C@@H](CO)C(=O)Nc1ccc2ccccc2c1` was run?
A: Its inhibition is > 25%.

Q: `CCOC(=O)CC[C@H](N)C(=O)O` was tested. Which inhibition did it give?
A: The inhibition was > 25%.

Q: Which inhibition does the source give for `CC(C)(S)[C@H](N)C(=O)O` here?
A: Its inhibition is > 25%.

Q: With `N[C@@H](C(=O)O)C1=CCC=CC1` as the compound, how does the inhibition read?
A: Its inhibition is > 25%.

Q: With `O=C(O)[C@@H]1C[C@H](Oc2cccc(Cl)c2)CN1` as the compound, how does the inhibition read?
A: The inhibition was > 25%.

Q: With `N[C@@H](Cc1ccc2ccccc2c1)C(=O)O` as the compound, how does the inhibition read?
A: Its inhibition is > 25%.

Q: For `NC(Cc1c[nH]c2cc(F)ccc12)C(=O)O` (stereo not drawn), which inhibition is on record?
A: Its inhibition is > 25%.

Q: For `NC1(C(=O)O)CCC1`, which inhibition is on record?
A: Its inhibition is > 25%.

Q: For `N#Cc1cccc(C[C@H]2CNC(C(=O)O)C2)c1` (single isomer, unassigned), which inhibition is on record?
A: The inhibition was > 25%.

Q: With `O=C(O)c1cc2sccc2[nH]1` as the compound, how does the inhibition read?
A: Its inhibition is > 25%.

Q: `N[C@@H](Cc1c[nH]c2ccc(O)cc12)C(=O)O` was tested. Which inhibition did it give?
A: Its inhibition is > 25%.

Q: For `N[C@@H](CCCc1ccccc1)C(=O)O`, which inhibition is on record?
A: The inhibition was > 25%.

Q: For `NC(C(=O)O)c1ccc(C(=O)O)c(O)c1` (stereo not drawn), which inhibition is on record?
A: The inhibition was > 25%.

Q: For `O=C(O)C1NCc2ccccc21` (stereo not drawn), which inhibition is on record?
A: The inhibition was > 25%.

Q: `N[C@@H](Cc1ccc(O)cc1)C(=O)O` was tested. Which inhibition did it give?
A: The inhibition was > 25%.

Q: How did the inhibition turn out when `O=C(/C=C/c1c(C(=O)O)[nH]c2cc(Cl)cc(Cl)c12)Nc1ccccc1` was run?
A: Its inhibition is > 25%.

Q: How did the inhibition turn out when `O=C(O)[C@@H]1C[C@@H](c2ccccc2)CN1` was run?
A: Its inhibition is > 25%.

Q: How did the inhibition turn out when `C=CC[C@H]1CNC(C(=O)O)C1` (single isomer, unassigned) was run?
A: The inhibition was > 25%.

Q: With `CC(=O)OC[C@H](N)C(=O)O` as the compound, how does the inhibition read?
A: The inhibition was > 25%.

Q: How did the inhibition turn out when `NC(C(=O)O)c1cccc([N+](=O)[O-])c1` (stereo not drawn) was run?
A: Its inhibition is > 25%.

Q: For `NC(=O)C[C@@H](N)C(=O)O`, which inhibition is on record?
A: The inhibition was > 25%.

Q: Which inhibition does the source give for `N[C@H](CCO)C(=O)O` here?
A: The inhibition was > 25%.

Q: For `NC(C(=O)O)c1cccc(C(F)(F)F)c1` (stereo not drawn), which inhibition is on record?
A: Its inhibition is > 25%.

Q: With `O=C(Nc1ccc2ccccc2c1)[C@@H]1CCCN1` as the compound, how does the inhibition read?
A: The inhibition was > 25%.

Q: `CSCC[C@H](N)C(=O)O` was tested. Which inhibition did it give?
A: The inhibition was > 25%.

Q: `O=C(O)C1C[C@@H](Cc2ccccc2I)CN1` (single isomer, unassigned) was tested. Which inhibition did it give?
A: The inhibition was > 25%.

Q: Which inhibition does the source give for `C[C@@H](O)[C@@H](N)C(=O)O` (racemic) here?
A: Its inhibition is > 25%.

Q: How did the inhibition turn out when `NC(C(=O)O)c1cc(O)ccc1Cl` (stereo not drawn) was run?
A: The inhibition was > 25%.

Q: `O=C(O)C1C[C@@H](Cc2cccc(F)c2)CN1` (single isomer, unassigned) was tested. Which inhibition did it give?
A: The inhibition was > 25%.

Q: With `O=C(O)[C@@H]1C[C@@H](Cc2ccc3ccccc3c2)CN1` as the compound, how does the inhibition read?
A: The inhibition was > 25%.

Q: With `NC(C(=O)O)C1C2CC3CC(C2)CC1C3` (stereo not drawn) as the compound, how does the inhibition read?
A: Its inhibition is > 25%.

Q: With `N[C@@H](CCC(=O)NO)C(=O)O` as the compound, how does the inhibition read?
A: Its inhibition is > 25%.

Q: For `O=C(O)[C@H](CO)NCc1ccccc1`, which inhibition is on record?
A: The inhibition was > 25%.

Q: For `NC(C(=O)O)C12CC3CC(CC(C3)C1)C2` (stereo not drawn), which inhibition is on record?
A: The inhibition was > 25%.

Q: With `CC(C)(C)OC(=O)N1C[C@H](C/C=C/c2ccccc2)C[C@H]1C(=O)O` as the compound, how does the inhibition read?
A: The inhibition was > 25%.

Q: For `O=C(O)[C@@H]1C[C@@H](Oc2cccc(Cl)c2)CN1`, which inhibition is on record?
A: Its inhibition is > 25%.

Q: With `N#Cc1ccc(C[C@H]2CNC(C(=O)O)C2)cc1` (single isomer, unassigned) as the compound, how does the inhibition read?
A: The inhibition was > 25%.

Q: How did the inhibition turn out when `C#CC[C@H]1CN[C@H](C(=O)O)C1` was run?
A: Its inhibition is > 25%.

Q: `O=C(O)C1C[C@@H](Cc2ccsc2)CN1` (single isomer, unassigned) was tested. Which inhibition did it give?
A: The inhibition was > 25%.

Q: For `C[C@H]1CCN[C@@H]1C(=O)O`, which inhibition is on record?
A: Its inhibition is > 25%.

Q: Which inhibition does the source give for `N[C@H](C(=O)O)C1CCCCC1` here?
A: The inhibition was > 25%.

Q: Which inhibition does the source give for `O=C(O)C1C[C@@H](Cc2csc3ccccc23)CN1` (single isomer, unassigned) here?
A: The inhibition was > 25%.

Q: Which inhibition does the source give for `Nc1c(O)cccc1C(=O)CC(N)C(=O)O` (stereo not drawn) here?
A: Its inhibition is > 25%.
